Nine molecules from US20230023332A1, “OLEAN-PHENYLACRYLAMIDE DERIVATIVE, METHOD FOR PREPARING SAME, AND USE THEREOF” (Lunan Pharmaceutical Group Corporation, priority 2019, published 2023) can be followed below.

Holding throughout (assay type): cell-based
In series [1] the test system is human liver cancer cell strain HepG2. The series can be described thus: MTT proliferation inhibition, HepG2. As to conditions: Homo sapiens, HepG2 cells, 48 h, read-out: Inhibitory activity (IC50) against proliferation, HepG2. The protocol: (§1) The anti-tumor activity of the compounds of the present invention was determined by the method of methyl thiazolyl tetrazolium (MTT), Bardoxolone Methyl (CDDO-Me) being selected as a positive control medicament.
(§2) Instruments: ultra-clean bench (SW-CJ-1FD, AIRTECH, Suzhou Antai Airtech Co. Ltd.), constant-temperature CO2 incubator (3111, Thermo, USA), inverted biomicroscope (IX71, OLYMPUS, Japan), ELISA microplate reader (Model 680, BIO-RAD, USA), platform shaker (Kylin-bell lab Instruments), autoclave (YXO.SG4I.280, Shanghai Huaxian), and centrifuge (SIGMA).
(§3) Reagents: DMEM (GIBCO), fetal bovine serum (GIBCO), trypsin (SIGMA), and DMSO (SIGMA).
(§4) Cell strains: human non-small cell lung cancer cell strain A549, human liver cancer cell strain HepG2, human breast cancer cell strain MCF-7, human renal tubular epithelial cells HK-2, rat embryonic cardiomyocytes H9C2 (all provided by Jiangsu KeyGEN BioTECH Co., Ltd.).
(§5) Methods: the cryopreserved cell strains were resuscitated and cultured in a CO2 incubator at a constant temperature of 37° C. with liquid being changed once daily. Plating was carried out when the cell strains were in a good state in the exponential phase. 1 mL of 0.25% trypsin solution was added for digestion for 1-2 min. The cell status was observed under the microscope, and when the adherent cells became round and shrunk, the digestion solution was aspirated and 1-2 mL of a DMEM medium containing 10% fetal bovine serum was added to obtain a cell suspension, on which a cell count was performed. The amount of required cell suspension was calculated on the basis of 5×10^4 cells per well and the total number of wells. The cell suspension was inoculated on a 96-well plate at 100 μL/well, the surroundings being blocked with PBS, followed by incubation in a CO2 incubator at a constant temperature of 37° C. for 24 h.
The MTT reagent was added to the 96-well plate at 10 μL/well to further incubate for 4 h. The medium in the plate was aspirated and 100 μL of DMSO was added to each well, followed by shaking on the platform shaker for 10 min such that the crystals were dissolved. […] The mean value of three preliminary screening results was taken as the final inhibition rate thereof.
(§6) Cell inhibition rate (%)=[(OD value of blank control−OD value of dosing cohort)/OD value of blank control group]×100%

Series [2] has as its system human renal tubular epithelial cells HK-2. In words: MTT proliferation inhibition / toxicity, HK-2. As to conditions: for IC50: Homo sapiens, HK-2 cells, MTT, 48 h, read-out: Inhibitory activity (IC50) against proliferation, HK-2; for toxicity to human renal tubular epithelial cells HK-2: statement in words. On the procedure: as §1, §2, §3, §4, §5
(§7) The test medicament, positive control medicament CDDO-Me, and blank control group DMSO were prepared in DMEM media to a final concentration of 5 μM/well, each medicament being placed in 3 replicate wells, followed by incubation for 48 h. The MTT reagent was added to the 96-well plate at 10 μL/well to further incubate for 4 h. The medium in the plate was aspirated and 100 μL of DMSO was added to each well, followed by shaking on the platform shaker for 10 min such that the crystals were dissolved. The absorbance of each well was examined by the ELISA microplate reader at a wavelength of 570 nm, and the cell inhibition rate was calculated according to the formula hereinafter. The mean value of three preliminary screening results was taken as the final inhibition rate thereof.
as §6

Series [3] has as its system human breast cancer cell strain MCF-7. The series can be described thus: MTT proliferation inhibition, MCF-7. As to conditions: Homo sapiens, MCF7, MCF-7 cells, 48 h, read-out: Inhibitory activity (IC50) against proliferation, MCF-7. On the procedure: as §1, §2, §3, §4, §5, §7, §6
Series [4] concerns human non-small cell lung cancer cell strain A549. The series can be described thus: MTT proliferation inhibition, A549. As to conditions: Homo sapiens, A549 cells, 48 h, read-out: Inhibitory activity (IC50) against proliferation, A549. The protocol: as §1, §2, §3, §4, §5, §7, §6
For series [5], the system named is rat embryonic cardiomyocytes H9C2. In words: MTT proliferation inhibition / toxicity, H9C2. As to conditions: Rattus norvegicus, H9C2 cardiomyocytes, MTT, 48 h, read-out: Inhibitory activity (IC50) against proliferation, H9C2. The protocol:
as §1, §2, §3, §4, §5, §7, §6

Where two headings read alike, the source gives them in different places.

Consider `CC1(C)CC[C@]2(NC(=O)/C=C/c3ccc(Cl)cc3)CC[C@]3(C)[C@H](C(=O)C=C4[C@@]5(C)C=C(C#N)C(=O)C(C)(C)[C@@H]5CC[C@]43C)[C@@H]2C1` [Compound I-6], for which the IC50 worked out at 482 ± 2 nM in series [1]; 727 ± 430 nM in series [2]; 738 ± 9 nM in series [3]; 588 ± 36 nM in series [4]; 373 ± 2 nM in series [5]. Also, the “toxicity to human renal tubular epithelial cells HK-2” value (“toxicity” below) in series [2] is “lower toxicity”.

Consider `CC1(C)CC[C@]2(NC(=O)/C=C/c3ccc(F)cc3)CC[C@]3(C)[C@H](C(=O)C=C4[C@@]5(C)C=C(C#N)C(=O)C(C)(C)[C@@H]5CC[C@]43C)[C@@H]2C1` [Compound I-5], for which the IC50 was determined as 785 ± 96 nM in series [1]; 2825 ± 4 nM in series [2]; 1310 ± 127 nM in series [3]; 788 ± 345 nM in series [4]; 316 ± 1 nM in series [5]. For the same molecule, the “toxicity” value in series [2] is given as “lower toxicity”.

As for `CC1(C)CC[C@]2(NC(=O)/C=C(\C#N)c3ccccc3)CC[C@]3(C)[C@H](C(=O)C=C4[C@@]5(C)C=C(C#N)C(=O)C(C)(C)[C@@H]5CC[C@]43C)[C@@H]2C1` [Compound I-13], the IC50 in series [1] is 328 ± 13 nM; in series [2], 473 ± 630 nM; in series [3], 375 ± 130 nM; in series [4], 414 ± 17 nM; in series [5] (H9c2, 48 h), 7 ± 9 nM. Besides, the “toxicity” value in series [2] is “lower toxicity”.

Consider `CC1(C)CC[C@]2(NC(=O)/C=C(\C#N)c3ccc(Cl)cc3)CC[C@]3(C)[C@H](C(=O)C=C4[C@@]5(C)C=C(C#N)C(=O)C(C)(C)[C@@H]5CC[C@]43C)[C@@H]2C1` [Compound I-18], for which the IC50 in series [1] was 406 ± 17 nM; in series [2], 647 ± 21 nM; in series [3], 500 ± 170 nM; in series [4], 300 ± 13 nM. In addition, the “toxicity” value in series [2] is listed as “lower toxicity”.

With `CC1(C)CC[C@]2(NC(=O)/C(C#N)=C/c3ccc(C(F)(F)F)cc3)CC[C@]3(C)[C@H](C(=O)C=C4[C@@]5(C)C=C(C#N)C(=O)C(C)(C)[C@@H]5CC[C@]43C)[C@@H]2C1` [Compound I-10], the IC50 in series [1] is 297 ± 11 nM; in series [2] it was 234 ± 117 nM; in series [3], 460 ± 105 nM; in series [4], 362 ± 12 nM; in series [5], 233 ± 10 nM.

On to `COc1ccc(/C(C#N)=C/C(=O)N[C@]23CCC(C)(C)C[C@H]2[C@H]2C(=O)C=C4[C@@]5(C)C=C(C#N)C(=O)C(C)(C)[C@@H]5CC[C@@]4(C)[C@]2(C)CC3)cc1` [Compound I-15], for which the IC50 in series [1] stood at 524 ± 32 nM; in series [2] it was 350 ± 37 nM; in series [3] it was 551 ± 140 nM; in series [4], 658 ± 58 nM; in series [5], 146 ± 12 nM.

As to `CC1(C)CC[C@]2(NC(=O)/C=C(\C#N)c3ccc(F)cc3)CC[C@]3(C)[C@H](C(=O)C=C4[C@@]5(C)C=C(C#N)C(=O)C(C)(C)[C@@H]5CC[C@]43C)[C@@H]2C1` [Compound I-17], the IC50 in series [1] came to 114 ± 4 nM; in series [2], 229 ± 126 nM; in series [3], 238 ± 8 nM; in series [4] it was 345 ± 174 nM.

On to `Cc1ccc(/C(C#N)=C/C(=O)N[C@]23CCC(C)(C)C[C@H]2[C@H]2C(=O)C=C4[C@@]5(C)C=C(C#N)C(=O)C(C)(C)[C@@H]5CC[C@@]4(C)[C@]2(C)CC3)cc1` [Compound I-14], for which the IC50 in series [1] amounted to 313 ± 35 nM; in series [2], 939 ± 62 nM; in series [3], 432 ± 188 nM; in series [4], 337 ± 15 nM; in series [5] it was 14 ± 1 nM. Further, the “toxicity” value in series [2] was “lower toxicity”.

With `COc1ccc(/C=C/C(=O)N[C@]23CCC(C)(C)C[C@H]2[C@H]2C(=O)C=C4[C@@]5(C)C=C(C#N)C(=O)C(C)(C)[C@@H]5CC[C@@]4(C)[C@]2(C)CC3)cc1` [Compound I-3], the IC50 in series [1] came out at 527 ± 133 nM; in series [2] it was 700 ± 16 nM; in series [3], 375 ± 38 nM; in series [4] it was 367 ± 18 nM; in series [5], 174 ± 5 nM. The “toxicity” value in series [2] was “lower toxicity”.
